“And” between values parts separate entries of the source, which are not always exact repeats. Identical values can stand only once.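 Five concentrations, 48 hours, 96-well plates. GI50: concentration for 50% inhibition of growth. Definition used: TGI = concentration required for complete inhibition of growth.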

Among the test systems are DU-145 prostate; COLO 205 colon; RPMI-8226 leukemia; NCI-H23 lung; SK-MEL-28 melanoma; SN12C renal; U251 CNS; MCF7 breast; HL-60(TB) leukemia; SK-OV-3 ovarian.
Common to all, as to experiment: inhibition of tumour cell growth, NCI panel, 48 h

As to `Cc1cc(C(=O)Nc2cc(Nc3ncccc3-c3ncnc4nc[nH]c34)ccc2F)cc(C(C)(C)C#N)c1`, the GI50 in the experiment with DU-145 prostate is 6200 nM; in the experiment with COLO 205 colon it was 52.6 nM; with RPMI-8226 leukemia, 2010 nM; in the experiment with NCI-H23 lung, 379 nM; with SK-MEL-28 melanoma, 40.2 nM; in the experiment on SN12C renal, 1910 nM. Moreover, the GI50 in the experiment with U251 CNS was 3740 nM; in the experiment with MCF7 breast, 5070 nM; with HL-60(TB) leukemia it was 167 nM; with SK-OV-3 ovarian, 26000 nM. For the same compound, the TGI is over 100000 nM in the experiment with DU-145 prostate; over 100000 nM with COLO 205 colon; 53500 nM with RPMI-8226 leukemia; over 100000 nM with NCI-H23 lung; over 100000 nM in the experiment on SK-MEL-28 melanoma; over 100000 nM with SN12C renal. For the same compound, the TGI in the experiment with U251 CNS, in the experiment on MCF7 breast, in the experiment on HL-60(TB) leukemia and with SK-OV-3 ovarian was over 100000 nM in each case.
`Nc1ccc2c(SCC(=O)Nc3ccccc3-c3ccccc3NC(=O)CSc3c4ccccc4nc4cc(N)ccc34)c3ccccc3nc2c1`: the TGI in the experiment on DU-145 prostate was over 58700 nM; in the experiment on COLO 205 colon it was 43000 nM; in the experiment on RPMI-8226 leukemia it was 38600 nM; with NCI-H23 lung, 39500 nM; with SK-MEL-28 melanoma it was 52500 nM; with SN12C renal, over 87200 nM. Also, the TGI in the experiment on U251 CNS is 66500 nM; in the experiment on MCF7 breast, over 100000 nM; in the experiment with HL-60(TB) leukemia, 36600 nM; with SK-OV-3 ovarian, over 100000 nM.
Regarding `CCCCCCCCCCCCCCCCCCNC(=O)[C@H]1CSC(c2ccc(F)c(OC)c2)N1` (some centres undefined), the GI50 was 1790 nM with DU-145 prostate; 195 nM in the experiment with RPMI-8226 leukemia; 1420 nM in the experiment on NCI-H23 lung; 647 nM with SK-MEL-28 melanoma; 805 nM with SN12C renal; 866 nM in the experiment with U251 CNS. Moreover, the GI50 was 141 nM with MCF7 breast, 670 nM in the experiment on HL-60(TB) leukemia and 1920 nM with SK-OV-3 ovarian. In addition, the TGI in the experiment on DU-145 prostate is over 50000 nM; in the experiment on RPMI-8226 leukemia, 826 nM; in the experiment with NCI-H23 lung, 5050 nM; with SK-MEL-28 melanoma it was 1330 nM; with SN12C renal it was 1720 nM; in the experiment on U251 CNS, 1600 nM. The TGI came out at 541 nM with MCF7 breast, 1620 nM with HL-60(TB) leukemia and 11200 nM with SK-OV-3 ovarian.
For `CC(C)c1ccc2c(c1)c(SC(C)(C)C)c(CC(C)(C)C(=O)O)n2Cc1ccc(Cl)cc1`, the GI50 in the experiment on DU-145 prostate was 6760 nM; in the experiment on COLO 205 colon it was 8460 nM; with RPMI-8226 leukemia it was 5170 nM; in the experiment on NCI-H23 lung, 10800 nM; in the experiment with SK-MEL-28 melanoma, 11300 nM; in the experiment with SN12C renal, 12200 nM. Further, the GI50 was 6800 nM in the experiment on U251 CNS, 5140 nM in the experiment on MCF7 breast, 8500 nM in the experiment with HL-60(TB) leukemia and 14100 nM with SK-OV-3 ovarian. Further, the TGI in the experiment on DU-145 prostate was 19000 nM; with COLO 205 colon, 21900 nM; with RPMI-8226 leukemia, 41800 nM; with NCI-H23 lung, 28100 nM; in the experiment with SK-MEL-28 melanoma, 25100 nM; in the experiment on SN12C renal, 25300 nM. Further, the TGI in the experiment on U251 CNS was 19400 nM; with MCF7 breast, 19400 nM; with HL-60(TB) leukemia, 30300 nM; with SK-OV-3 ovarian, 29800 nM.
`COc1ccc(-c2conc2-c2ccccc2)cc1`: the GI50 was 416 nM in the experiment with DU-145 prostate; 248 nM in the experiment with COLO 205 colon; 453 nM in the experiment with RPMI-8226 leukemia; 549 nM with NCI-H23 lung; 10800 nM with SK-MEL-28 melanoma; 1000 nM with SN12C renal. The GI50 with U251 CNS is 468 nM; in the experiment with MCF7 breast it was 86.5 nM; in the experiment with HL-60(TB) leukemia it was 288 nM; with SK-OV-3 ovarian it was 501 nM. Further, the TGI was 1420 nM in the experiment on COLO 205 colon; 41900 nM in the experiment with RPMI-8226 leukemia; over 100000 nM in the experiment with NCI-H23 lung; over 100000 nM with SK-MEL-28 melanoma; over 100000 nM in the experiment with SN12C renal; over 100000 nM in the experiment with U251 CNS. In addition, the TGI with MCF7 breast is over 100000 nM; in the experiment on HL-60(TB) leukemia, 1410 nM; with SK-OV-3 ovarian it was over 100000 nM.
Regarding `O=C1c2c(O)ccc(O)c2C(=O)c2c(NCCNCCO)ccc(NCCNCCO)c21`, the TGI in the experiment with DU-145 prostate is 83.2 nM and 465 nM and 310 nM; in the experiment with COLO 205 colon, 1230 nM and 769 nM and 1160 nM; in the experiment on RPMI-8226 leukemia, 1150 nM and 6390 nM and 3550 nM; with SK-MEL-28 melanoma, 1660 nM and 1030 nM and 2310 nM; in the experiment with SN12C renal, 162 nM and 1570 nM and 214 nM; with U251 CNS, 151 nM and 499 nM and 376 nM. For the same compound, the TGI in the experiment with MCF7 breast is 640 nM and 663 nM and 1230 nM; in the experiment with SK-OV-3 ovarian, 228 nM and 563 nM and 431 nM. Besides, the GI50 in the experiment on MCF7 breast was < 10 nM and < 5 nM and 4.26 nM; in the experiment with HL-60(TB) leukemia, 12.7 nM.
Turning to `COc1cc(/C=C2/C(=O)N(C(=O)c3ccccc3O)N=C2C)ccc1O`, the TGI in the experiment on DU-145 prostate was over 100000 nM; with COLO 205 colon it was over 80700 nM; in the experiment on RPMI-8226 leukemia, over 100000 nM; with SK-MEL-28 melanoma, over 100000 nM; with SN12C renal, over 39100 nM; in the experiment with U251 CNS it was over 100000 nM. The TGI with MCF7 breast was over 100000 nM; in the experiment with HL-60(TB) leukemia it was over 52900 nM; with SK-OV-3 ovarian, over 86500 nM.
Regarding `CC(=O)c1c(Nc2ccc(F)c(F)c2F)[nH]c2c(F)cc(F)cc2c1=O`, the GI50 in the experiment with DU-145 prostate was 403 nM; with RPMI-8226 leukemia, 206 nM; in the experiment with NCI-H23 lung, 286 nM; with SK-MEL-28 melanoma, 356 nM; in the experiment with SN12C renal, 277 nM; in the experiment on U251 CNS it was 343 nM. Also, the GI50 in the experiment with MCF7 breast was 283 nM; in the experiment on HL-60(TB) leukemia it was 372 nM; in the experiment with SK-OV-3 ovarian, 297 nM. Also, the TGI in the experiment with DU-145 prostate was over 100000 nM; with RPMI-8226 leukemia, 720 nM; with NCI-H23 lung it was 4410 nM; with SK-MEL-28 melanoma, 3570 nM; in the experiment on SN12C renal it was 3450 nM; in the experiment with U251 CNS it was 20100 nM. The TGI with MCF7 breast is 13500 nM; with SK-OV-3 ovarian, 3240 nM.
For the compound `CN1CCN(CCCOc2ccc3ncnc(Nc4ccc(Oc5cccc(F)c5)c(Cl)c4)c3c2)CC1`, the GI50 in the experiment on DU-145 prostate was 1310 nM; in the experiment with COLO 205 colon, 1860 nM; in the experiment on RPMI-8226 leukemia it was 1580 nM; in the experiment on NCI-H23 lung, 1480 nM; in the experiment with SK-MEL-28 melanoma, 1700 nM; in the experiment on SN12C renal, 1390 nM. In addition, the GI50 in the experiment with U251 CNS is 1560 nM; in the experiment on MCF7 breast it was 1570 nM; in the experiment on HL-60(TB) leukemia it was 2050 nM. In addition, the TGI with DU-145 prostate was 2790 nM; in the experiment with COLO 205 colon, 3640 nM; with RPMI-8226 leukemia, 4860 nM; in the experiment on NCI-H23 lung, 3020 nM; in the experiment with SK-MEL-28 melanoma, 3110 nM; with SN12C renal, 2740 nM. Besides, the TGI in the experiment on U251 CNS was 3290 nM; with MCF7 breast, 3310 nM; in the experiment on HL-60(TB) leukemia, 4170 nM.
Take `Cc1nnc(N=Nc2c(O)[nH]c3ccccc23)[nH]c1=O`: the TGI with DU-145 prostate, in the experiment with RPMI-8226 leukemia, with SK-MEL-28 melanoma, with SN12C renal, in the experiment with U251 CNS and with MCF7 breast was over 100000 nM each time. For the same compound, the TGI in the experiment on HL-60(TB) leukemia and in the experiment on SK-OV-3 ovarian was over 100000 nM throughout.

The record behind these values is PubChem BioAssay (NCI).
